Measured values: BindingDB's records for PubMed 36166643 (University of Santiago De Compostela, 2022)

Experiment: Induction of CYP24A1 (unknown orgin) transcriptional activity trasfected in human MCF7 cells incuabted for 48 hrs by luciferase reporter gene assay

**Q.** For `C=C1/C(=C\C=C(/CCCCCC(C)(C)O)c2cccc(CCCCCC(C)(C)O)c2)C[C@@H](O)C[C@@H]1O`, which EC50 is on record?
**A.** Its EC50 is 5.6 nM.

**Q.** For `C=C1/C(=C\C=C\c2cc(CCCCCC(C)(C)O)cc(CCCCCC(C)(C)O)c2)C[C@@H](O)C[C@@H]1O`, which EC50 is on record?
**A.** The EC50 was 3 nM.
